Test results from publication PMC5607274, “An iterative compound screening contest method for identifying target protein inhibitors using the tyrosine-protein kinase Yes” (Scientific Reports, 2017).

Target: T1, human recombinant Yes [a.a. 2–543 (end)] (Homo sapiens, UniProt P07947)
T1 construct: human recombinant Yes [a.a; 2–543 (end)]; purchased BPS Bioscience 40488
Experiment: ADP-Glo kinase assay, inhibition rates of Yes phosphorylation activity (first and second screening)
Format: biochemical
Settings: 10 μmol L−1 compound; for First screening IR (inhibition rate): mean of n = 4 wells
Method in brief: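 ADP-Glo luminescence measured inhibition of human recombinant Yes (a.a. 2–543) phosphorylation activity. In the first screen, each compound ran in 4 wells and inhibition rates were averaged. The second screen retested hits as compounds dissolved from fresh powder.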

T1 sequence (P07947 2-543): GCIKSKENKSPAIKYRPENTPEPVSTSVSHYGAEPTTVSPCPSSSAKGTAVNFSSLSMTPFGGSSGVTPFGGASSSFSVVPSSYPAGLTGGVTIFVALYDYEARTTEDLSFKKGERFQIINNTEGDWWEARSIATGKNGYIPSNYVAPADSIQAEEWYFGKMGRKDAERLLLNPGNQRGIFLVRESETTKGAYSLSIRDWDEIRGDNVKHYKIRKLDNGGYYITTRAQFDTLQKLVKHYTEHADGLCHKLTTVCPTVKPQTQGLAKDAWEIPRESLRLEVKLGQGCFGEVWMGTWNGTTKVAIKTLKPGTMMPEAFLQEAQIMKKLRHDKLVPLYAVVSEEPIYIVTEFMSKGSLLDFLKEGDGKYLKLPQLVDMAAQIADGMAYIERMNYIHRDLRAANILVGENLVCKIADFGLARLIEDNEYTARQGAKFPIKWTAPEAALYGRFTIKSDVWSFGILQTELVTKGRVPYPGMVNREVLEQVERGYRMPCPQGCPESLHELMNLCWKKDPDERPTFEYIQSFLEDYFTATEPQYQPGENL

Structure (SMILES) | First screening IR (inhibition rate) | Second screening IR (inhibition rate) (second screening, dissolved from fresh powder, n = 4)
O=C(CCc1nnc2n(Cc3ccc(Cl)cc3)c(=O)c3ccccc3n12)NCCCN1CCOCC1 [Compound Z1157834172] | -1% | 
Cc1nn(Cc2ccccc2)c(Cl)c1C(=O)OCc1nc(N)nc(Nc2ccccc2)n1 [Compound Z89784395] | 0% | 
O=C(Nc1cc(C(F)(F)F)ccc1N1CCCCC1)c1ccc(Cl)c(S(=O)(=O)Nc2ccccc2C(=O)Nc2cc(C(F)(F)F)ccc2N2CCCCC2)c1 [Compound Z56805970] | 44% | -10%
Cc1cc(COC(=O)c2cc(-c3ccccc3)nc3c2cnn3Cc2ccccc2)no1 [Compound Z228519880] | -10% | 
O=C(O)c1ccc2nc3c(nc2c1)-c1cccc2cccc-3c12 [Compound Z55723243] | 15% | 
CS(=O)(=O)c1ccc(N2CCCC2)c(S(C)(=O)=O)c1 [Compound Z168801896] | 13% | 
Cc1cc(Br)c(O)c(C(=O)NCCC(=O)N2CCOCC2)c1 [Compound Z596098802] | 7% | 
Cc1ccc(C(N)=O)c(OCc2ccc(C#N)cc2F)c1 [Compound Z217923492] | 9% | 
COc1cc(C(=O)NCCc2ccc(-n3cccn3)cc2)ccc1C [Compound Z223337292] | 3% | 
CN(C)c1ccc(Nc2nccc(C(F)(F)F)n2)cn1 [Compound Z319012738] | 2% | 
O=C(Nc1cc(N2CCCS2(=O)=O)ccc1O)c1cccc(C(F)(F)F)c1 [Compound Z573928840] | -18% | 
Cc1cn2c3c(=O)n(CCN4CCCCC4)c(=O)n(C)c3nc2n1-c1ccc(Oc2ccccc2)cc1 [Compound Z247616328] | 11% | 
Cn1ncc2c(N3CCOC(Cn4cccn4)C3)ncnc21 (stereo not shown) [Compound Z1139215576] | 18% | 
FC(F)(F)c1ccnc(Nc2ccc(NC3CCOCC3)cc2)n1 [Compound Z1021076320] | 13% | 
O=S(=O)(Nc1cnc2ccccc2c1)c1ccc(Cl)c(Cl)c1 [Compound Z246801514] | 3% | 
COCCNC(=O)/C(=C\c1ccc(-c2cccc(Cl)c2)o1)NC(=O)c1ccc(OC)cc1 [Compound Z57239420] | 46% | 
O=C(/C=C/c1cn(-c2ccccc2)nc1-c1cccnc1)c1ccc(Cl)c([N+](=O)[O-])c1 [Compound Z46041361] | 19% | 
Cc1nc(C)n(C2CCCN(C(=O)CCn3ccnc3)C2)n1 (stereo not shown) [Compound Z1139343408] | 0% | 
CC(=O)Nc1ccc(/C=C2/CCCc3c2nc2ccccc2c3C(=O)O)cc1 [Compound Z46035730] | 5% | 
CN(C)S(=O)(=O)c1ccc(S(C)(=O)=O)cc1 [Compound Z300114426] | -8% | 
COC(=O)c1cc(-c2ccc(OC)c(OC)c2)nc2c1c(C)nn2C1CCS(=O)(=O)C1 (stereo not shown) [Compound Z91043666] | 2% | 
CC1CCc2c(sc3nc4c(c(-c5ccco5)c23)-c2ccccc2CC4)C1.Cl (stereo not shown) [Compound Z76887050] | 8% | 
COc1ccc(-c2c(C#N)c(=O)[nH]c3c2c(C)nn3-c2ccccc2)cc1OC [Compound Z1007027518] | -1% | 

Structure (SMILES) | First screening IR (inhibition rate) | Second screening IR (inhibition rate) (second screening, dissolved from fresh powder, n = 4)
COc1ccc(-c2n[nH]c(CNC(=O)C3=NN(C)C(=O)CC3)n2)cc1 [Compound Z1119644111] | 4% | 
Cc1cc(=O)[nH]c(SCC(=O)c2ccc3c(c2)NC(=O)CO3)n1 [Compound Z56863397] | -14% | 
O=C(Nc1nccs1)C1CCCN(C(=O)c2[nH]ncc2Br)C1 (stereo not shown) [Compound Z1177677805] | 6% | 
COc1ccc(/C(O)=C2\C(=O)C(=O)N(CCCn3ccnc3)C2c2ccc(OC(C)C)cc2)cc1 (stereo not shown) [Compound Z316169960] | 12% | 
O=C(Nc1ccc(C2(c3ccc(NC(=O)c4ccc(N5CCCCCC5)c([N+](=O)[O-])c4)cc3)CCCCC2)cc1)c1ccc(N2CCCCCC2)c([N+](=O)[O-])c1 [Compound Z56818449] | -7% | 
O=S1(=O)CCC(S(=O)(=O)NC2CCCCCC2)CC1 [Compound Z968739862] | 50% | 
O=c1[nH]ncc(NCc2ccc(Cn3cnc4ccccc43)cc2)c1Cl [Compound Z951371090] | 5% | 
Cc1cccc(=O)n1CCCCNc1cnc2ccccc2n1 [Compound Z1084012684] | 10% | 
O=C1CN(C(=O)c2nn(-c3ccc(F)cc3)c3c2CCCCC3)CCN1 [Compound Z254636716] | 10% | 
OCCNc1nc2ccccc2n1-c1ncnc2sc3c(c12)CCCC3 [Compound Z57981090] | 7% | 
O=C(CCNC(=O)c1cc2cc(F)ccc2[nH]1)Nc1ccccn1 [Compound Z649200126] | -10% | 
O=c1c2cccc3c2c(nn1-c1ccccc1)-c1ccccc1-3 [Compound Z57229152] | 18% | 
Cc1noc(C)c1COc1ccc(C(=O)NCCCn2ccc3ccccc32)cc1 [Compound Z32811942] | 3% | 
Cc1sc2nc(CSc3ccccc3)nc(N3CCCC3C(N)=O)c2c1C (stereo not shown) [Compound Z31132453] | 9% | 
Cc1cc(=O)n2c3ccccc3n(CC(O)CN3CCN(CCOc4ccc(Cl)cc4)CC3)c2c1C#N (stereo not shown) [Compound Z57724322] | 7% | 
Cc1cc(/C=N/Nc2nc(-c3ccc(F)cc3)cs2)c(C)n1-c1cc(Cl)ccc1Cl [Compound Z56791351] | -8% | 
CC(NC(=O)C(NC(=O)c1ccco1)C(C)C)c1ccc(-n2ccnc2)cc1 (stereo not shown) [Compound Z27306758] | 4% | 
COc1cc(NC(=O)Cc2c(C)[nH]c3ccccc23)c(C(N)=O)cc1OC [Compound Z917537988] | -25% | 
O=C(COc1ccccc1)NCc1nc2ccccc2[nH]1 [Compound Z26782031] | -12% | 
CC(C)(C)C1C/C(=C/c2ccc3c(c2)OCO3)c2nc3ccccc3c(C(=O)O)c2C1 (stereo not shown) [Compound Z46108733] | 8% | 
CC(NC(=O)c1ccc(-n2cnc3ccccc32)cc1)c1ccc(S(N)(=O)=O)cc1 (stereo not shown) [Compound Z87656555] | -5% | 
Cc1c(C(=O)Nc2cnn(C)c2)c(=O)[nH]c2ccccc12 [Compound Z1343740230] | 23% | 
CC(C)c1nnc(CNC(C)(C)c2ccc(Cl)cc2)o1 [Compound Z1120830695] | 17% | 

Structure (SMILES) | First screening IR (inhibition rate) | Second screening IR (inhibition rate) (second screening, dissolved from fresh powder, n = 4)
O=C(c1ccoc1)N1CCC(NCc2cn[nH]c2-c2ccc(F)cc2)CC1 [Compound Z401874244] | 36% | 
O=C(CCc1ccsc1)Nc1cc(C(F)(F)F)c[nH]c1=O [Compound Z432185696] | 4% | 
CC(O)CNc1nc2ccccc2n1CC(=O)NCc1cccs1 (stereo not shown) [Compound Z25766910] | -11% | 
CCn1ncc2c(C(=O)OC)cc(-c3ccccc3)nc21 [Compound Z90171664] | 11% | 
Cc1ccc(-c2nc(NC(=O)c3ccc(F)cc3F)n[nH]2)cc1 [Compound Z119762582] | -5% | 
Cc1c(C(=O)N(C2CCC(C)CC2)C2CC2)cnn1-c1ccc(=O)[nH]n1 (stereo not shown) [Compound Z908597782] | -8% | 
Cc1ccc2nc(CSc3n[nH]c(-c4ccccc4)n3)cn2c1 [Compound Z25398010] | -4% | 
COc1ccc(-n2ccc(C(=O)N3CCCCC3c3cn[nH]c3)n2)cc1 (stereo not shown) [Compound Z1198921141] | 5% | 
Nc1ncnc(Nc2cccc(C(F)(F)F)c2)n1 [Compound Z56931708] | 13% | 
Oc1cccc(/C=N/Nc2ccnc3cc(Cl)ccc23)c1 [Compound Z49625857] | -13% | 
CCOC(=O)Cn1ccc2cc(NC(=O)c3sc(-c4ccccc4)nc3C)ccc21 [Compound Z968524204] | 2% | 
O=C(NCc1cn2ccsc2n1)C1CC1c1ccccc1C(F)(F)F (stereo not shown) [Compound Z333170264] | -2% | 
CCOC(=O)c1c(-c2ccc(OC)cc2)csc1NC(=O)CN1CCN(c2cccc(OC)c2)CC1 [Compound Z46356995] | 9% | 
CC1CN(C(=O)OC(C)(C)C)C(C)CN1C(=O)Cc1csc(N2CCNC2=O)n1 (stereo not shown) [Compound Z1579018538] | 2% | 
Cc1cc(NC(=O)c2cc3c(F)cccc3s2)n(CCC#N)n1 [Compound Z826713980] | -5% | 
O=C(CCC1NC(=O)NC1=O)Nc1ccc(Oc2ccccc2Cl)cc1 (stereo not shown) [Compound Z168726218] | 11% | 
CCC(C)CS(=O)(=O)N1CCS(=O)(=O)C(C)(C)C1 (stereo not shown) [Compound Z1403432995] | 11% | 
CCN(CCNC(=O)c1[nH]c2c(c1C)C(=O)CCC2)c1cccc(C)c1 [Compound Z188949814] | -5% | 
COC(=O)c1c2c(nc3ccccc13)/C(=C\c1ccc3c(c1)OCO3)CCC2 [Compound Z19539846] | -2% | 
Cc1cc(OCC(=O)NC(C)c2ccc(-n3ccnc3)cc2)ccc1C(C)C (stereo not shown) [Compound Z27305591] | -7% | 
CCc1cc(CNC(=O)NCc2ccc3cc(OC)ccc3c2)on1 [Compound Z1256754058] | -8% | 
COc1ccc(S(=O)(=O)NCC(=O)OCC(=O)Nc2ccc(Cl)c(C(F)(F)F)c2)cc1 [Compound Z24395276] | 8% | 
CN(C1(C)CCS(=O)(=O)C1)S(=O)(=O)c1ccc(Cl)c(Cl)c1 (stereo not shown) [Compound Z131022412] | 2% | 
